Laboratory results as given in US8835644B2, “Broad spectrum benzothiophene-nitrothiazolide and other antimicrobials” (University of Virginia Patent Foundation, priority 2009, dated 2014).
Values after ≈ are worked out from the molar mass of the structure shown. Read-outs that look alike come from different tables or passages of the source.

Tests used:
[1] = test system: H. pylori; assay: MIC testing by broth dilution, H. pylori; format: cell-based, Helicobacter pylori
Procedure, shortened: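 Helicobacter pylori was tested using a standard broth dilution method in 96 well microplates, each well holding a standard dilution of the organism in 100 microliters of Brain Heart Infusion. Compounds started at 32 μg/ml in 200 microliters in the first well and were serially diluted from 32 to 0.06. Wells were read visually at 24 h, and the MIC was the well with no growth.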

[2] = test system: C. jejuni; assay: MIC testing by broth dilution, C. jejuni; format: cell-based, Campylobacter jejuni
Procedure, shortened: (§1)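 Compounds were diluted serially from 32 μg/ml to 0.06 in medium holding a standard inoculum, then visually scored at 24 h, and the lowest well without growth was recorded. Media were LB for E. coli, Trypticase Soy for S. epidermidis and Brain Heart Infusion for C. jejuni. C. difficile zones were measured anaerobically relative to NTZ.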

[3] = test system: MRSA; assay: MIC testing by broth dilution, MRSA; format: cell-based, Staphylococcus aureus
Procedure, shortened: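 Values are broth-dilution MICs, defined as the well showing no growth on visual reading after 24 h; the tested range was 32 to 0.06 μg/ml, in organism-specific media (LB, Trypticase Soy, Brain Heart Infusion). The C. difficile entries come instead from anaerobic Kirby-Bauer disk zones, normalised to NTZ.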

[4] = test system: S. epidermidis; assay: MIC testing by broth dilution, S. epidermidis plank; format: cell-based, Staphylococcus epidermidis
Procedure, shortened: as §1

[5] = test system: S. epidermidis biofilm; assay: S. epidermidis biofilm assay (activity tables); format: cell-based, Staphylococcus epidermidis
Experimental: Staphylococcal strains were cultured overnight in TSB at 37° C. with shaking, diluted in fresh medium to an OD600 of 0.01 and 200 W was dispensed into sterile flat bottom polystyrene 96 well microtiter plates (Costar 3596, Corning Inc.). […] Each compound and dilution was tested in triplicate. The plates were incubated overnight at 37° C. in a humidified incubator, without shaking and both growth and biofilm accumulation were determined at 16 h.
Following recording of turbidities, the culture medium was aspirated and the wells were washed three times with distilled water, blotted on paper towels, and fixed with 75% ethanol for 10 minutes.
To visualize biofilm material, 0.5% crystal violet was added to each well and after 5 minutes was removed and the wells washed three times with distilled water. Plates were read using a microplate reader at a wavelength of 570 nm. The dye was then extracted by adding 200 W of 95% ethanol, and the absorbance was read again at 570 nm. All assays were performed in triplicate and the mean and standard deviation determined. […]
(§2) Representative compounds of the invention were tested in a series of assays against a series of organisms as described above. […] The organisms tested include, C. difficile, H. pylori, C. jejuni, MRSA, S. epidermidis, and E. coli. S. epidermidis and E. coli were tested in the plank and biofilm assay. A disk diffusion assay was also used for C. difficile. Direct PFOR enzyme assays were also performed. All analogues and derivatives were not tested on every organism in every type of assay (the “-” in each table means that it was not tested).

[6] = test system: E. coli; assay: MIC testing by broth dilution, E. coli plank; format: cell-based, Escherichia coli
Procedure, shortened: as §1

[7] = test system: E. coli biofilm; assay: E. coli biofilm assay (activity tables); format: cell-based, Escherichia coli
Experimental: A quantitative biofilm assay was used to determine the effect of NTZ on biofilm formation (41). Strain 042 was grown overnight at 37° C. with shaking and inoculated 1:100 in 200 μl culture medium in Costar 96-well, flat-bottom, polystyrene microtiter plates containing appropriate concentrations of NTZ. Plates were incubated statically at 37° C. in a humidified incubator. At 24 h, bacterial growth was measured by either transferring […] aliquots to another microtiter plate to determine turbidity or by diluting 100 μl aliquots 1:100 in 9.9 ml PBS for quantitative plate counts on LB medium. Bacterial counts in triplicate are reported as cfu/ml. Biofilm was visualized following staining with 0.5% crystal violet (41) and the absorbance was read at 570 nm using a microplate reader (Molecular Dynamics). All experiments were in triplicate and reported as mean and standard deviation.
(§3) A standard broth dilution protocol was used in 96 well microplates containing a standard dilution of the microorganism to be tested in 100 microliters of the appropriate medium. Appropriate medium: E. coli, LB medium; Staphylococcus strains, Trypticase Soy; and for H. pylori and C. jejuni, Brain Heart Infusion. The compounds to be tested were set at 32 μg/ml in 200 microliters in well one and then serially diluted to provide a range from 32 to 0.06. The wells were scored visually at 24 h. The well where there was no growth was recorded as the MIC. Clostridium difficile was tested by agar diffusion and disk diffusion (Kirby Bower) methods under anaerobic conditions on Wilkins Chalgrin agar. In these assays, zone of inhibited growth was measured and compared by relative ratio to the zone recorded for NTZ.
as §2

[8] = test system: C. difficile; assay: Disk diffusion (Kirby Bower), C. difficile; format: cell-based, Clostridium difficile; conditions: Nitazoxanide = 100
Experimental: as §3, §2

[9] = Helicobacter pylori, Furan analogues table, read-out: MIC H. pylori
[10] = Campylobacter jejuni, Furan analogues table, read-out: MIC C. jejuni
[11] = Staphylococcus aureus, MRSA, Furan analogues table, read-out: MIC MRSA
[12] = Staphylococcus epidermidis, planktonic, Furan analogues table, read-out: MIC S. epidermidis Plank
[13] = Escherichia coli, planktonic, Furan analogues table, read-out: MIC E. coli Plank
[14] = Escherichia coli; biofilm; Furan analogues table; read-out: MIC E. coli Biofilm

## O=C(Nc1ncc([N+](=O)[O-])s1)c1ccc(-c2ccccc2C(F)(F)F)o1 [VPC161196, N-(5-Nitrothiazol-2-yl)-5-(2-(trifluoromethyl)phenyl)furan-2-carboxamide]
[1]; [9]
  MIC: 1.1 µM (≈ 0.422 µg/mL)
[2]; [10]
  MIC: 8.5 µM (≈ 3.26 µg/mL)
[3]; [11]
  MIC: 2.8 µM (≈ 1.07 µg/mL)
[4]; [12]
  MIC: 5.7 µM (≈ 2.18 µg/mL)
[5]; Furan analogues table
  MIC S. epidermidis Biofilm: 5.7 µM (≈ 2.18 µg/mL)
[6]; [13]
  MIC: 90.8 µM (≈ 34.8 µg/mL)
[7]; [14]
  MIC: 90.8 µM (≈ 34.8 µg/mL)
[8]; Furan analogues table
  Disk Diff (%) C. difficile: 70.5 ± 0.5%

## O=C(Nc1ncc([N+](=O)[O-])s1)c1ccc(-c2cccc(C(F)(F)F)c2)o1 [VPC161197]
[1]; Furan analogues table, read-out: MIC H. pylori
  MIC: 1.1 µM (≈ 0.422 µg/mL)
[2]; Furan analogues table, read-out: MIC C. jejuni
  MIC: 8.5 µM (≈ 3.26 µg/mL)
[3]; Furan analogues table, read-out: MIC MRSA
  MIC: 11.4 µM (≈ 4.37 µg/mL)
[4]; planktonic, Furan analogues table, read-out: MIC S. epidermidis Plank
  MIC: 5.7 µM (≈ 2.18 µg/mL)
[5]; Furan analogues table
  MIC S. epidermidis Biofilm: 5.7 µM (≈ 2.18 µg/mL)
[6]; planktonic, Furan analogues table, read-out: MIC E. coli Plank
  MIC: 90.8 µM (≈ 34.8 µg/mL)
[7]; biofilm; Furan analogues table; read-out: MIC E. coli Biofilm
  MIC: 90.8 µM (≈ 34.8 µg/mL)

## O=C(Nc1ccc(F)cc1)Nc1ncc([N+](=O)[O-])s1 [VPC161267]
[1]; Helicobacter pylori, broth dilution, Brain Heart Infusion, 24 h, read-out: MIC (μM) H. pylori
  MIC: 0.9 µM (≈ 0.254 µg/mL)
[2]; Campylobacter jejuni, broth dilution, Brain Heart Infusion, 24 h, read-out: MIC (μM) C. jejuni
  MIC: 21.3 µM (≈ 6.01 µg/mL)
[3]; Staphylococcus aureus, MRSA, broth dilution, Trypticase Soy, 24 h, read-out: MIC (μM) MRSA
  MIC: 56.7 µM (≈ 16 µg/mL)
[4]; Staphylococcus epidermidis, broth dilution, Trypticase Soy, 24 h, read-out: MIC (μM) S. epidermidis Plank
  MIC: 28.3 µM (≈ 7.99 µg/mL)
[5]
  MIC (μM) S. epidermidis Biofilm: 28.3 µM (≈ 7.99 µg/mL)
[6]; Escherichia coli, broth dilution, LB medium, 24 h, read-out: MIC (μM) E. coli Plank
  MIC: 113 µM (≈ 32 µg/mL)
[7]; Escherichia coli; read-out: MIC (μM) E. coli Biofilm
  MIC: 56.7 µM (≈ 16 µg/mL)

## O=C(CCCC(=O)Nc1ncc([N+](=O)[O-])s1)Nc1ncc([N+](=O)[O-])s1 [VPC161276, N^1,N^5-Bis(5-nitrothiazol-2-yl)glutaramide]
[1]; Helicobacter pylori, 24 h, read-out: MIC (μM) H. pylori
  MIC: 5.2 µM (≈ 2.01 µg/mL)
[2]; Campylobacter jejuni, 24 h, read-out: MIC (μM) C. jejuni
  MIC: 31.1 µM (≈ 12 µg/mL)
[3]; Staphylococcus aureus, MRSA, 24 h, read-out: MIC (μM) MRSA
  MIC: 82.8 µM (≈ 32 µg/mL)
[4]; Staphylococcus epidermidis, 24 h, read-out: MIC (μM) S. epidermidis Plank
  MIC: 82.8 µM (≈ 32 µg/mL)
[5]
  MIC (μM) S. epidermidis Biofilm: 1.3 µM (≈ 0.502 µg/mL)
[6]; Escherichia coli, 24 h, read-out: MIC (μM) E. coli Plank
  MIC: 82.8 µM (≈ 32 µg/mL)
[7]; Escherichia coli, read-out: MIC (μM) E. coli Biofilm
  MIC: 82.8 µM (≈ 32 µg/mL)

## Cc1ncc([N+](=O)[O-])n1CCOC(=O)CCCC(=O)Nc1ncc([N+](=O)[O-])s1 [VPC161277]
[1]; broth dilution, Brain Heart Infusion, 24 h, read-out: MIC (μM) H. pylori
  MIC: 1.8 µM (≈ 0.742 µg/mL)
[2]; broth dilution, Brain Heart Infusion, 24 h, read-out: MIC (μM) C. jejuni
  MIC: 29.1 µM (≈ 12 µg/mL)
[3]; broth dilution, Trypticase Soy, 24 h, read-out: MIC (μM) MRSA
  MIC: 77.6 µM (≈ 32 µg/mL)
[4]; broth dilution, Trypticase Soy, 24 h, read-out: MIC (μM) S. epidermidis Plank
  MIC: 77.6 µM (≈ 32 µg/mL)
[5]
  MIC (μM) S. epidermidis Biofilm: 2.4 µM (≈ 0.99 µg/mL)
[6]; broth dilution, LB medium, 24 h, read-out: MIC (μM) E. coli Plank
  MIC: 77.6 µM (≈ 32 µg/mL)
[7]; biofilm; read-out: MIC (μM) E. coli Biofilm
  MIC: 77.6 µM (≈ 32 µg/mL)

## O=C(Nc1ncc([N+](=O)[O-])s1)c1ncc([N+](=O)[O-])s1 [VPC161280]
[1]; Thiophene analogues table, read-out: MIC H. pylori
  MIC: 6.6 µM (≈ 1.99 µg/mL)
[2]; Thiophene analogues table, read-out: MIC C. jejuni
  MIC: 13.3 µM (≈ 4.01 µg/mL)
[3]; Thiophene analogues table, read-out: MIC MRSA
  MIC: 53.1 µM (≈ 16 µg/mL)
[4]; planktonic, Thiophene analogues table, read-out: MIC S. epidermidis Plank
  MIC: 5.0 µM (≈ 1.51 µg/mL)
[5]; Thiophene analogues table
  MIC S. epidermidis Biofilm: 6.6 µM (≈ 1.99 µg/mL)
[6]; planktonic, Thiophene analogues table, read-out: MIC E. coli Plank
  MIC: 39.8 µM (≈ 12 µg/mL)
[7]; biofilm; Thiophene analogues table; read-out: MIC E. coli Biofilm
  MIC: 3.3 µM (≈ 0.994 µg/mL)

## O=C(Nc1ncc([N+](=O)[O-])s1)c1ccc(Br)o1 [VPC161281, 5-Bromo-N-(5-nitrothiazol-2-yl)furan-2-carboxamide]
[1]; [9]
  MIC: 1.6 µM (≈ 0.509 µg/mL)
[2]; [10]
  MIC: 12.6 µM (≈ 4.01 µg/mL)
[3]; [11]
  MIC: 6.3 µM (≈ 2 µg/mL)
[4]; [12]
  MIC: 25.1 µM (≈ 7.98 µg/mL)
[5]; Furan analogues table
  MIC S. epidermidis Biofilm: 50.3 µM (≈ 16 µg/mL)
[6]; [13]
  MIC: 101 µM (≈ 32 µg/mL)
[7]; [14]
  MIC: 0.4 µM (≈ 0.127 µg/mL)
[8]; Furan analogues table
  Disk Diff (%) C. difficile: 92%

## O=C(Nc1ncc([N+](=O)[O-])s1)c1ccc(Br)s1 [VPC161282, 5-Bromo-N-(5-nitrothiazol-2-yl)thiophene-2-carboxamide]
[1]; Helicobacter pylori, Thiophene analogues table, read-out: MIC H. pylori
  MIC: 3 µM (≈ 1 µg/mL)
[2]; Campylobacter jejuni, Thiophene analogues table, read-out: MIC C. jejuni
  MIC: 9.9 µM (≈ 3.31 µg/mL)
[3]; Staphylococcus aureus, MRSA, Thiophene analogues table, read-out: MIC MRSA
  MIC: 4.5 µM (≈ 1.5 µg/mL)
[4]; Staphylococcus epidermidis, planktonic, Thiophene analogues table, read-out: MIC S. epidermidis Plank
  MIC: 23.9 µM (≈ 7.99 µg/mL)
[5]; Thiophene analogues table
  MIC S. epidermidis Biofilm: 47.9 µM (≈ 16 µg/mL)
[6]; Escherichia coli, planktonic, Thiophene analogues table, read-out: MIC E. coli Plank
  MIC: 95.8 µM (≈ 32 µg/mL)
[7]; Escherichia coli; biofilm; Thiophene analogues table; read-out: MIC E. coli Biofilm
  MIC: 0.1 µM (≈ 0.0334 µg/mL)
[8]; Thiophene analogues table
  Disk Diff (%) C. difficile: 90%
